{"source": "paper PMC7156458", "about": "“Synthetic biology based construction of biological activity-related library of fungal decalin-containing diterpenoid pyrones” (Nature Communications, 2020)", "target": "Aβ42 (Homo sapiens, UniProt P05067)", "sequence (P05067 672-713)": "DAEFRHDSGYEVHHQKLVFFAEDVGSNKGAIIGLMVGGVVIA", "assay": "Th-T (thioflavin-T) assay of Aβ42 aggregation", "format": "biochemical", "conditions": "for Th-T fluorescence, mean of three wells: compound at 50"}
{"smiles": "C=C1CCC2C(C)(CCC=C(C)C)C(O)CCC2(C)C1Cc1c(OC)oc(CO)c(C)c1=O", "note": "(stereo not drawn) [Compound 12]", "values": [{"measurement": "Th-T fluorescence, mean of three wells", "setting": "reading M54 of time course", "value": 1.475}, {"measurement": "Th-T fluorescence, mean of three wells", "setting": "reading M55 of time course", "value": 1.456}, {"measurement": "Th-T fluorescence, mean of three wells", "setting": "reading M56 of time course", "value": 1.467}, {"measurement": "Th-T fluorescence, mean of three wells", "setting": "reading M57 of time course", "value": 1.475}, {"measurement": "Th-T fluorescence, mean of three wells", "setting": "reading M58 of time course", "value": 1.462}, {"measurement": "Th-T fluorescence, mean of three wells", "setting": "reading M59 of time course", "value": 1.454}, {"measurement": "Th-T fluorescence, mean of three wells", "setting": "reading M60 of time course", "value": 1.444}, {"measurement": "Th-T fluorescence, mean of three wells", "setting": "reading M61 of time course", "value": 1.462}, {"measurement": "Th-T fluorescence, mean of three wells", "setting": "reading M62 of time course", "value": 1.445}, {"measurement": "Th-T fluorescence of Aβ42 with compound, mean of three wells (Fig. 7a source data)", "setting": "concentration 10, unit not given, time-course reading M129", "value": 2.41}, {"measurement": "Th-T fluorescence of Aβ42 with compound, mean of three wells (Fig. 7a source data)", "setting": "concentration 10, unit not given, time-course reading M130", "value": 2.392}, {"measurement": "Th-T fluorescence of Aβ42 with compound, mean of three wells (Fig. 7a source data)", "setting": "concentration 10, unit not given, time-course reading M131", "value": 2.376}, {"measurement": "Th-T fluorescence of Aβ42 with compound, mean of three wells (Fig. 7a source data)", "setting": "concentration 10, unit not given, time-course reading M132", "value": 2.3677}, {"measurement": "Th-T fluorescence of Aβ42 with compound, mean of three wells (Fig. 7a source data)", "setting": "concentration 10, unit not given, time-course reading M133", "value": 2.357}, {"measurement": "Th-T fluorescence of Aβ42 with compound, mean of three wells (Fig. 7a source data)", "setting": "concentration 10, unit not given, time-course reading M134", "value": 2.346}, {"measurement": "Th-T fluorescence of Aβ42 with compound, mean of three wells (Fig. 7a source data)", "setting": "concentration 10, unit not given, time-course reading M135", "value": 2.32}, {"measurement": "Th-T fluorescence of Aβ42 with compound, mean of three wells (Fig. 7a source data)", "setting": "concentration 10, unit not given, time-course reading M136", "value": 2.323}, {"measurement": "Th-T fluorescence of Aβ42 with compound, mean of three wells (Fig. 7a source data)", "setting": "concentration 10, unit not given, time-course reading M137", "value": 2.294}, {"measurement": "Th-T fluorescence of Aβ42 with compound, mean of three wells (Fig. 7a source data)", "setting": "concentration 10, unit not given, time-course reading M138", "value": 2.29}, {"measurement": "Th-T fluorescence of Aβ42 with compound, mean of three wells (Fig. 7a source data)", "setting": "concentration 10, unit not given, time-course reading M139", "value": 2.265}, {"measurement": "Th-T fluorescence of Aβ42 with compound, mean of three wells (Fig. 7a source data)", "setting": "concentration 10, unit not given, time-course reading M140", "value": 2.265}, {"measurement": "Th-T fluorescence of Aβ42 with compound, mean of three wells (Fig. 7a source data)", "setting": "concentration 10, unit not given, time-course reading M141", "value": 2.2429}, {"measurement": "Th-T fluorescence of Aβ42 with compound, mean of three wells (Fig. 7a source data)", "setting": "concentration 10, unit not given, time-course reading M142", "value": 2.235}, {"measurement": "Th-T fluorescence of Aβ42 with compound, mean of three wells (Fig. 7a source data)", "setting": "concentration 10, unit not given, time-course reading M143", "value": 2.219}, {"measurement": "Th-T fluorescence of Aβ42 with compound, mean of three wells (Fig. 7a source data)", "setting": "concentration 10, unit not given, time-course reading M144", "value": 2.211}, {"measurement": "Th-T fluorescence of Aβ42 with compound, mean of three wells (Fig. 7a source data)", "setting": "concentration 10, unit not given, time-course reading M145", "value": 2.191}, {"measurement": "Th-T fluorescence of Aβ42 with compound, mean of three wells (Fig. 7a source data)", "setting": "concentration 20, unit not given, time-course reading M129", "value": 2.166}, {"measurement": "Th-T fluorescence of Aβ42 with compound, mean of three wells (Fig. 7a source data)", "setting": "concentration 20, unit not given, time-course reading M130", "value": 2.19}, {"measurement": "Th-T fluorescence of Aβ42 with compound, mean of three wells (Fig. 7a source data)", "setting": "concentration 20, unit not given, time-course reading M131", "value": 2.201}, {"measurement": "Th-T fluorescence of Aβ42 with compound, mean of three wells (Fig. 7a source data)", "setting": "concentration 20, unit not given, time-course reading M132", "value": 2.206}, {"measurement": "Th-T fluorescence of Aβ42 with compound, mean of three wells (Fig. 7a source data)", "setting": "concentration 20, unit not given, time-course reading M133", "value": 2.24}, {"measurement": "Th-T fluorescence of Aβ42 with compound, mean of three wells (Fig. 7a source data)", "setting": "concentration 20, unit not given, time-course reading M134", "value": 2.215}, {"measurement": "Th-T fluorescence of Aβ42 with compound, mean of three wells (Fig. 7a source data)", "setting": "concentration 20, unit not given, time-course reading M135", "value": 2.232}, {"measurement": "Th-T fluorescence of Aβ42 with compound, mean of three wells (Fig. 7a source data)", "setting": "concentration 20, unit not given, time-course reading M136", "value": 2.218}, {"measurement": "Th-T fluorescence of Aβ42 with compound, mean of three wells (Fig. 7a source data)", "setting": "concentration 20, unit not given, time-course reading M137", "value": 2.204}, {"measurement": "Th-T fluorescence of Aβ42 with compound, mean of three wells (Fig. 7a source data)", "setting": "concentration 20, unit not given, time-course reading M138", "value": 2.229}, {"measurement": "Th-T fluorescence of Aβ42 with compound, mean of three wells (Fig. 7a source data)", "setting": "concentration 20, unit not given, time-course reading M139", "value": 2.207}, {"measurement": "Th-T fluorescence of Aβ42 with compound, mean of three wells (Fig. 7a source data)", "setting": "concentration 20, unit not given, time-course reading M140", "value": 2.233}, {"measurement": "Th-T fluorescence of Aβ42 with compound, mean of three wells (Fig. 7a source data)", "setting": "concentration 20, unit not given, time-course reading M141", "value": 2.207}, {"measurement": "Th-T fluorescence of Aβ42 with compound, mean of three wells (Fig. 7a source data)", "setting": "concentration 20, unit not given, time-course reading M142", "value": 2.239}, {"measurement": "Th-T fluorescence of Aβ42 with compound, mean of three wells (Fig. 7a source data)", "setting": "concentration 20, unit not given, time-course reading M143", "value": 2.219}, {"measurement": "Th-T fluorescence of Aβ42 with compound, mean of three wells (Fig. 7a source data)", "setting": "concentration 20, unit not given, time-course reading M144", "value": 2.234}, {"measurement": "Th-T fluorescence of Aβ42 with compound, mean of three wells (Fig. 7a source data)", "setting": "concentration 20, unit not given, time-course reading M145", "value": 2.206}, {"measurement": "Th-T fluorescence of Aβ42 with compound, mean of three wells (Fig. 7a source data)", "setting": "concentration 50, unit not given, time-course reading M129", "value": 1.589}, {"measurement": "Th-T fluorescence of Aβ42 with compound, mean of three wells (Fig. 7a source data)", "setting": "concentration 50, unit not given, time-course reading M130", "value": 1.591}, {"measurement": "Th-T fluorescence of Aβ42 with compound, mean of three wells (Fig. 7a source data)", "setting": "concentration 50, unit not given, time-course reading M131", "value": 1.579}, {"measurement": "Th-T fluorescence of Aβ42 with compound, mean of three wells (Fig. 7a source data)", "setting": "concentration 50, unit not given, time-course reading M132", "value": 1.5892}, {"measurement": "Th-T fluorescence of Aβ42 with compound, mean of three wells (Fig. 7a source data)", "setting": "concentration 50, unit not given, time-course reading M133", "value": 1.602}, {"measurement": "Th-T fluorescence of Aβ42 with compound, mean of three wells (Fig. 7a source data)", "setting": "concentration 50, unit not given, time-course reading M134", "value": 1.607}, {"measurement": "Th-T fluorescence of Aβ42 with compound, mean of three wells (Fig. 7a source data)", "setting": "concentration 50, unit not given, time-course reading M135", "value": 1.608}, {"measurement": "Th-T fluorescence of Aβ42 with compound, mean of three wells (Fig. 7a source data)", "setting": "concentration 50, unit not given, time-course reading M136", "value": 1.609}, {"measurement": "Th-T fluorescence of Aβ42 with compound, mean of three wells (Fig. 7a source data)", "setting": "concentration 50, unit not given, time-course reading M137", "value": 1.626}, {"measurement": "Th-T fluorescence of Aβ42 with compound, mean of three wells (Fig. 7a source data)", "setting": "concentration 50, unit not given, time-course reading M138", "value": 1.633}, {"measurement": "Th-T fluorescence of Aβ42 with compound, mean of three wells (Fig. 7a source data)", "setting": "concentration 50, unit not given, time-course reading M139", "value": 1.6439}, {"measurement": "Th-T fluorescence of Aβ42 with compound, mean of three wells (Fig. 7a source data)", "setting": "concentration 50, unit not given, time-course reading M140", "value": 1.64}, {"measurement": "Th-T fluorescence of Aβ42 with compound, mean of three wells (Fig. 7a source data)", "setting": "concentration 50, unit not given, time-course reading M141", "value": 1.647}, {"measurement": "Th-T fluorescence of Aβ42 with compound, mean of three wells (Fig. 7a source data)", "setting": "concentration 50, unit not given, time-course reading M142", "value": 1.661}]}
